Data reported in patent US20110081325A1, “NOVEL TREATMENT OF HEART DISEASES” (Axiogenesis AG, priority 2008, published 2011).

How the values were obtained:
[1] = test system: in vitro differentiated cardiomyocytes; test: Cardiotoxic effect of doxorubicin on in vitro differentiated cardiomyocytes; assay type: cell-based, mouse; conditions: according to Example 4 of WO2005/005621, FIG. 4
Method: (§1) FIGS. 1-4: Effect of different vinca alkaloids (FIGS. 1-3) and doxorubicin (FIG. 4) on the viability and rate of survival of in vitro differentiated cardiomyocytes. EBs were generated and cardiac cells were differentiated as described in Example 1. Photomicrographs were taken before treatment and 48 and 72 hours after treatment. Fluorescent areas representing cardiac cells were measured and calculated as described in Example 2 and 3. Cor.At refers to in vitro differentiated cardiomyocytes and MEF to Mouse Embryonic Fibroblasts.
Thereafter, Example 2, supra, is modified in that doxorubin (doxorubicinhydrochlorid) together with vinblastin, vincristin or vinorelbin is added at different concentrations and reversed dilution series to the cell culture.

[2] = test system: in vitro differentiated cardiomyocytes; test: Survival of in vitro differentiated cardiomyocytes in embryoid bodies (GFP fluorescent area); assay type: cell-based, mouse; conditions: ES cell-derived cardiomyocytes, after 72 hours, fluorescent area compared with before treatment
Method: as §1
The generation of “embryoid bodies” (EBs) from high density cell suspensions and differentiation of cardiac cells was essentially performed as described in Example 1 of international application WO2005/005621, the disclosure content of which is hereby incorporated by reference in its entirety. Briefly, mouse embryonic stem cells (ES cells, clone D3, ATCC CRL 1934) were stably transfected with the paMHC-GFP vector containing the gene of the green fluorescent protein under control of the cardiac α-myosin heavy chain (α-MHC) promotor. To obtain this vector, a 5.5 kb fragment containing the promoter region of the mouse α-myosin heavy chain gene (Genbank 471441) was introduced into the polylinker of the pEGFP-1 vector (Clontech Laboratories). […]
To generate EBs, ES cells were cultured in suspension at a density of 2×10^6 cells/ml in a 6 cm petri dish (Greiner, Darmstadt, Germany) in 4 ml IMDM with 20% FCS (Invitrogen, Karlsruhe, Germany) at 37° C., 5% CO2, 95% humidity on a rocking table (GFL 3006, GFL, Braunschweig, Germany) at 50 rpm for 6 hours. […] On day 14, fluorescent areas representing cardiac cells were detected by fluorescence microscopy using a Zeiss Axiovert 200M with a 10x Achroplan objective, a HQ-filterset for GFP (AF Analysentechnik, Tubingen, Germany) and a Sensicam 12 bit cooled imaging system (PCO Imaging, Kelheim, Germany). […]

COc1cccc2c1C(=O)c1c(O)c3c(c(O)c1C2=O)C[C@@](O)(C(=O)CO)C[C@@H]3O[C@H]1C[C@H](N)[C@H](O)[C@H](C)O1 [doxorubicin]
cardiotoxic effect on cardiomyocytes [1]: cardiotoxic effect

CC[C@]1(O)C[C@@H]2CN(CCc3c([nH]c4ccccc34)[C@@](C(=O)OC)(c3cc4c(cc3OC)N(C)[C@H]3[C@@](O)(C(=O)OC)[C@H](OC(C)=O)[C@]5(CC)C=CCN6CC[C@]43[C@@H]65)C2)C1 [vinblastin]
survival of in vitro differentiated cardiomyocytes [2]: increase survival

CC[C@]1(O)C[C@H]2CN(CCc3c([nH]c4ccccc34)[C@@](C(=O)OC)(c3cc4c(cc3OC)N(C=O)[C@H]3[C@@](O)(C(=O)OC)[C@H](OC(C)=O)[C@]5(CC)C=CCN6CC[C@]43[C@@H]65)C2)C1 [vincristin]
survival of in vitro differentiated cardiomyocytes [2]: increase survival

CCC1=C[C@@H]2CN(C1)Cc1c([nH]c3ccccc13)[C@@](C(=O)OC)(c1cc3c(cc1OC)N(C)[C@H]1[C@@](O)(C(=O)OC)[C@H](OC(C)=O)[C@]4(CC)C=CCN5CC[C@]31[C@@H]54)C2 [vinorelbin]
survival of in vitro differentiated cardiomyocytes [2]: increase survival
